{
  "source": "patent US20240228667A9",
  "about": "“Methods for Treating Multiple Myeloma” (Celgene Corporation, priority 2021, published 2024)",
  "origin": "cited, not measured here",
  "test_system": "acute myeloid leukemia (AML) at relapse",
  "conditions": "CT-011 administered alone",
  "data": [
    {"substance": "CT-011: anti-PD-1 antibody, a humanized antibody", "values": [
      {"measurement": "response in treating acute myeloid leukemia (AML) at relapse", "result": "failed to show response"}
    ]}
  ]
}
